Results reported in PubChem BioAssay AID1259407 (Chemical Carcinogenesis Research Information System (CCRIS), 2018).
Activity calls are given as the source filed them. How the calls were made is not given here.

Test system: CCRIS mutagenicity, Ames/micronucleus/aberration tests
Experiment: CCRIS mutagenicity studies
[1] = Test System: AMES SALMONELLA TYPHIMURIUM, Strain/Indicator: TA98, Metabolic Activation: NONE, Method: PREINCUBATION
[2] = Test System: AMES SALMONELLA TYPHIMURIUM, Strain/Indicator: TA98, Metabolic Activation: NONE, Method: STANDARD PLATE
[3] = Test System: AMES SALMONELLA TYPHIMURIUM, Strain/Indicator: TA98, Metabolic Activation: RAT, LIVER, S-9, AROCLOR 1254, Method: PREINCUBATION
[4] = Test System: AMES SALMONELLA TYPHIMURIUM, Strain/Indicator: TA98, Metabolic Activation: RAT, LIVER, S-9, AROCLOR 1254, Method: STANDARD PLATE
[5] = Test System: AMES SALMONELLA TYPHIMURIUM, Strain/Indicator: TA100, Metabolic Activation: NONE, Method: PREINCUBATION
[6] = Test System: AMES SALMONELLA TYPHIMURIUM, Strain/Indicator: TA100, Metabolic Activation: NONE, Method: STANDARD PLATE
[7] = Test System: AMES SALMONELLA TYPHIMURIUM, Strain/Indicator: TA100, Metabolic Activation: RAT, LIVER, S-9, AROCLOR 1254, Method: PREINCUBATION
[8] = Test System: AMES SALMONELLA TYPHIMURIUM, Strain/Indicator: TA100, Metabolic Activation: RAT, LIVER, S-9, AROCLOR 1254, Method: STANDARD PLATE
[9] = Test System: AMES SALMONELLA TYPHIMURIUM, Strain/Indicator: TA1535, Metabolic Activation: NONE, Method: STANDARD PLATE
[10] = Test System: AMES SALMONELLA TYPHIMURIUM, Strain/Indicator: TA1535, Metabolic Activation: RAT, LIVER, S-9, AROCLOR 1254, Method: STANDARD PLATE
[11] = Test System: AMES SALMONELLA TYPHIMURIUM, Strain/Indicator: TA1537, Metabolic Activation: NONE, Method: STANDARD PLATE
[12] = Test System: AMES SALMONELLA TYPHIMURIUM, Strain/Indicator: TA1537, Metabolic Activation: RAT, LIVER, S-9, AROCLOR 1254, Method: STANDARD PLATE
[13] = Test System: AMES SALMONELLA TYPHIMURIUM, Strain/Indicator: TA1538, Metabolic Activation: NONE, Method: STANDARD PLATE
[14] = Test System: AMES SALMONELLA TYPHIMURIUM, Strain/Indicator: TA1538, Metabolic Activation: RAT, LIVER, S-9, AROCLOR 1254, Method: STANDARD PLATE
[15] = Test System: AMES SALMONELLA TYPHIMURIUM, Strain/Indicator: TA102, Metabolic Activation: NONE, Method: STANDARD PLATE
[16] = Test System: AMES SALMONELLA TYPHIMURIUM, Strain/Indicator: TA102, Metabolic Activation: RAT, LIVER, S-9, AROCLOR 1254, Method: STANDARD PLATE

## O=C(CCCN1CCC(O)(c2ccc(Cl)cc2)CC1)c1ccc(F)cc1
End Point: IN VITRO CHROMOSOMAL ABERRATIONS, Test System: HUMAN LYMPHOCYTES, Metabolic Activation: NONE
  mutagenic call: inactive; negative
End Point: IN VIVO CHROMOSOMAL ABERRATIONS, Test System: LYMPHOCYTES, Species: HUMAN, Strain/Sex: MALE, Route: ORAL
  mutagenic call: inactive; negative
Test System: AMES SALMONELLA TYPHIMURIUM, Strain/Indicator: TA98, Metabolic Activation: MOUSE, LIVER, S-9, AROCLOR 1254, Method: STANDARD PLATE
  mutagenic call: inactive; negative
Test System: AMES SALMONELLA TYPHIMURIUM, Strain/Indicator: TA98, Metabolic Activation: MOUSE, LIVER, S-9, Method: STANDARD PLATE
  mutagenic call: inactive; negative
[1]
  mutagenic call: inactive; negative
[2]
  mutagenic call: inactive; negative
[3]
  mutagenic call: inactive; negative
[4]
  mutagenic call: inactive; negative
Test System: AMES SALMONELLA TYPHIMURIUM, Strain/Indicator: TA100, Metabolic Activation: MOUSE, LIVER, S-9, AROCLOR 1254, Method: STANDARD PLATE
  mutagenic call: inactive; negative
Test System: AMES SALMONELLA TYPHIMURIUM, Strain/Indicator: TA100, Metabolic Activation: MOUSE, LIVER, S-9, Method: STANDARD PLATE
  mutagenic call: inactive; negative
[5]
  mutagenic call: inactive; negative
[6]
  mutagenic call: inactive; negative
[7]
  mutagenic call: inactive; negative
[8]
  mutagenic call: inactive; negative
Test System: AMES SALMONELLA TYPHIMURIUM, Strain/Indicator: TA1530, Metabolic Activation: MOUSE, LIVER, S-9, AROCLOR 1254, Method: STANDARD PLATE
  mutagenic call: inactive; negative
Test System: AMES SALMONELLA TYPHIMURIUM, Strain/Indicator: TA1530, Metabolic Activation: MOUSE, LIVER, S-9, Method: STANDARD PLATE
  mutagenic call: inactive; negative
Test System: AMES SALMONELLA TYPHIMURIUM, Strain/Indicator: TA1530, Metabolic Activation: NONE, Method: STANDARD PLATE
  mutagenic call: inactive; negative
Test System: AMES SALMONELLA TYPHIMURIUM, Strain/Indicator: TA1530, Metabolic Activation: RAT, LIVER, S-9, AROCLOR 1254, Method: STANDARD PLATE
  mutagenic call: inactive; negative
Test System: AMES SALMONELLA TYPHIMURIUM, Strain/Indicator: TA1535, Metabolic Activation: MOUSE, LIVER, S-9, AROCLOR 1254, Method: STANDARD PLATE
  mutagenic call: inactive; negative
Test System: AMES SALMONELLA TYPHIMURIUM, Strain/Indicator: TA1535, Metabolic Activation: MOUSE, LIVER, S-9, Method: STANDARD PLATE
  mutagenic call: inactive; negative
[9]
  mutagenic call: inactive; negative
[10]
  mutagenic call: inactive; negative
[11]
  mutagenic call: inactive; negative
[12]
  mutagenic call: inactive; negative
Test System: AMES SALMONELLA TYPHIMURIUM, Strain/Indicator: TA1538, Metabolic Activation: MOUSE, LIVER, S-9, AROCLOR 1254, Method: STANDARD PLATE
  mutagenic call: inactive; negative
Test System: AMES SALMONELLA TYPHIMURIUM, Strain/Indicator: TA1538, Metabolic Activation: MOUSE, LIVER, S-9, Method: STANDARD PLATE
  mutagenic call: inactive; negative
[13]
  mutagenic call: inactive; negative
[14]
  mutagenic call: inactive; negative

## O=[N+]([O-])c1cccc(S(=O)(=O)OC[C@@H]2CO2)c1
[6]
  mutagenic call: active; positive

## Cc1ccc2cc3c(c4c2c1CC4)[C@@H](O)[C@@H](O)c1ccccc1-3
Test System: CHINESE HAMSTER V-79, Strain/Indicator: V-79/8-AZAGUANINE, Metabolic Activation: NONE, Method: STANDARD PLATE
  mutagenic call: active; positive

## O=C1c2ccccc2CCc2ccccc21
Test System: AMES SALMONELLA TYPHIMURIUM, Strain/Indicator: TA98, Metabolic Activation: HAMSTER, LIVER, S-9, AROCLOR 1254, Method: STANDARD PLATE
  mutagenic call: inactive; negative
[2]
  mutagenic call: inactive; negative
[4]
  mutagenic call: inactive; negative
Test System: AMES SALMONELLA TYPHIMURIUM, Strain/Indicator: TA100, Metabolic Activation: HAMSTER, LIVER, S-9, AROCLOR 1254, Method: STANDARD PLATE
  mutagenic call: inactive; negative
[6]
  mutagenic call: inactive; negative
[8]
  mutagenic call: inactive; negative
Test System: AMES SALMONELLA TYPHIMURIUM, Strain/Indicator: TA1535, Metabolic Activation: HAMSTER, LIVER, S-9, AROCLOR 1254, Method: STANDARD PLATE
  mutagenic call: inactive; negative
[9]
  mutagenic call: inactive; negative
[10]
  mutagenic call: inactive; negative
Test System: AMES SALMONELLA TYPHIMURIUM, Strain/Indicator: TA1537, Metabolic Activation: HAMSTER, LIVER, S-9, AROCLOR 1254, Method: STANDARD PLATE
  mutagenic call: inactive; negative
[11]
  mutagenic call: inactive; negative
[12]
  mutagenic call: inactive; negative
Test System: AMES SALMONELLA TYPHIMURIUM, Strain/Indicator: TA1538, Metabolic Activation: HAMSTER, LIVER, S-9, AROCLOR 1254, Method: STANDARD PLATE
  mutagenic call: inactive; negative
[13]
  mutagenic call: inactive; negative
[14]
  mutagenic call: inactive; negative
Test System: MOUSE LYMPHOMA, Strain/Indicator: L5178Y (TK+/TK-), Metabolic Activation: NONE, Method: SUSPENSION/PLATE
  mutagenic call: inactive; negative. reevaluation of results: negative
Test System: MOUSE LYMPHOMA, Strain/Indicator: L5178Y (TK+/TK-), Metabolic Activation: RAT, LIVER, S-9, AROCLOR 1254, Method: SUSPENSION/PLATE
  mutagenic call: inactive; negative. reevaluation of results: negative

## Cc1cc(O)c2c(c1)C(=O)c1cc(O)c(O)c(O)c1C2=O
[11]
  mutagenic call: inactive; negative

## Cc1c(N)c(=O)n(-c2ccccc2)n1C
Test System: AMES SALMONELLA TYPHIMURIUM, Strain/Indicator: TA97, Metabolic Activation: NONE, Method: STANDARD PLATE
  mutagenic call: active; positive
Test System: AMES SALMONELLA TYPHIMURIUM, Strain/Indicator: TA97, Metabolic Activation: RAT, LIVER, S-9, AROCLOR 1254, Method: STANDARD PLATE
  mutagenic call: active; positive
Test System: AMES SALMONELLA TYPHIMURIUM, Strain/Indicator: TA97A, Metabolic Activation: RAT, LIVER, S-9, AROCLOR 1254, Method: STANDARD PLATE
  mutagenic call: active; positive
[2]
  mutagenic call: inactive; negative
[4]
  mutagenic call: inactive; negative
[6]
  mutagenic call: inactive; negative
[8]
  mutagenic call: inactive; negative
[15]
  mutagenic call: inactive; negative
[16]
  mutagenic call: inactive; negative
Test System: AMES SALMONELLA TYPHIMURIUM, Strain/Indicator: TA104, Metabolic Activation: NONE, Method: STANDARD PLATE
  mutagenic call: inactive; negative
Test System: AMES SALMONELLA TYPHIMURIUM, Strain/Indicator: TA104, Metabolic Activation: RAT, LIVER, S-9, AROCLOR 1254, Method: STANDARD PLATE
  mutagenic call: inactive; negative
[11]
  mutagenic call: inactive; negative
[12]
  mutagenic call: inactive; negative

## Cc1nc2c(C)cc3c(nc(N)n3C)c2nc1C
[4]
  mutagenic call: active; positive

## COc1cc(OC)c2c(c1)O[C@@H]1OC=C[C@H]21
[1]
  mutagenic call: inactive; negative
[3]
  mutagenic call: active; positive
[5]
  mutagenic call: active; positive
[7]
  mutagenic call: active; positive

## CN(C)CC(=O)O
[6]
  mutagenic call: inactive; negative
[8]
  mutagenic call: inactive; negative

## CCN(N)c1ccccc1
[6]
  mutagenic call: active; positive
[8]
  mutagenic call: inactive; negative
[15]
  mutagenic call: inactive; negative
[16]
  mutagenic call: active; positive
